Experimental data as given in patent US20070003586A1, “Insecticidal coating for use on cellulosic substrates” (priority 2005, published 2007).

Experiment: LD50 (lethal dose 50%) value
Conditions: rat, in vivo; insecticide as such; subjects typically rats
Description: According to one aspect of the present invention, an insecticidal coating composition for use on cellulosic substrates is provided comprising a polyvinyl acetate emulsion; a vinyl acetate ethylene copolymer emulsion; and an insecticide having an LD50 value of between about 14,500 to about 15,500 mg/kg. By “LD50” value, it is meant “lethal dose 50%” value, which indicates the quantity of a substance, which, when administered to a population of subjects (typically rats), will cause 50% of the subjects to perish.

CC1(C)[C@H](C(=O)O[C@H](C#N)c2cccc(Oc3ccccc3)c2)[C@@H]1C=C(Br)Br [deltamethrin, (S)-cyano-3-phenoxybenzyl(1R)-cis-3-(2,2-dibromovinyl)-2,2-dimethylcyclopropane carboxylate]
LD50: ~15000 mg/kg
